# According to article PMC6627609, “Targeting Quorum Sensing: High-Throughput Screening to Identify Novel LsrK Inhibitors” (International Journal of Molecular Sciences, 2019):
# Structures can show the parent of a compound that is named as a salt.
# Target: LsrK (Salmonella typhimurium, UniProt Q8ZKQ6)
# Assay: biochemical
# Assay type: biochemical, S. typhimurium
# Conditions: not given
# Sequence of LsrK (Q8ZKQ6 whole entry): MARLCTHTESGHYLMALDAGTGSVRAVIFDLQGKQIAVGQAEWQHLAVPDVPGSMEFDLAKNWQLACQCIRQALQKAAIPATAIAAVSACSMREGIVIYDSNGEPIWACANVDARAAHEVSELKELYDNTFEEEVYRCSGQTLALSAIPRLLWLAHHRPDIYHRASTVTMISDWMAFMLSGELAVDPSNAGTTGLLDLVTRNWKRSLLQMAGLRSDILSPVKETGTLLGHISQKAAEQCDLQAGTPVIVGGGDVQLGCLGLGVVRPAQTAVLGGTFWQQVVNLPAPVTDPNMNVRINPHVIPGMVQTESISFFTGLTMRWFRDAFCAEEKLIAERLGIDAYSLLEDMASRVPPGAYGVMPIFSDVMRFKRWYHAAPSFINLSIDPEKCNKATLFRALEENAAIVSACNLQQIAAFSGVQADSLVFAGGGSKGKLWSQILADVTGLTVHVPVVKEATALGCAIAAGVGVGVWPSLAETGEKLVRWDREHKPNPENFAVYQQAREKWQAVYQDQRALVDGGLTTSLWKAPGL
row,Compound,inhibition at 50 µM [%]
1,CC1(C)C(C=C(Cl)Cl)C1C(=O)OC(C#N)c1cccc(Oc2ccccc2)c1 (centres unmarked) [CYPERMETHRIN],3
2,CCCCN1CCCCC1C(=O)Nc1c(C)cccc1C (centres unmarked) [BUPIVACAINE HYDROCHLORIDE],2
3,CC(=O)OCC(=O)[C@@]12OC(C)(C)O[C@@H]1C[C@H]1[C@@H]3C[C@H](F)C4=CC(=O)C=C[C@]4(C)[C@@]3(F)[C@@H](O)C[C@@]12C [FLUOCINONIDE],3
4,COC1(C)CCC2OC2(C)CCC2C1CC2(C)C (centres unmarked) [2-METHOXY-5 (6)EPOXY-TETRAHYDROCARYOPHYLLENE],0
5,O=c1oc2c(O)c(O)cc3c(=O)oc4c(O)c(O)cc1c4c23 [ELLAGIC ACID],7
6,Oc1c(Cl)cc(Cl)c(Cl)c1Cc1c(O)c(Cl)cc(Cl)c1Cl [HEXACHLOROPHENE],112
7,CC1=C(CCC(=O)O)c2cc3[nH]c(cc4nc(cc5[nH]c(cc1n2)c(C)c5C(C)O)C(C)=C4C(C)O)c(C)c3CCC(=O)O (centres unmarked) [HAEMATOPORPHYRIN],55
8,Cc1cc(C)cc(OCC2CNC(=O)O2)c1 (centres unmarked) [METAXALONE],0
9,C/C(=C(\CCOP(=O)(O)O)SC(=O)c1ccccc1)N(C=O)Cc1cnc(C)nc1N [BENFOTIAMINE],0
10,Nc1nc(F)nc2c1ncn2[C@@H]1O[C@H](COP(=O)(O)O)[C@@H](O)[C@@H]1O [FLUDARABINE PHOSPHATE],0
11,O=C(CCCN1CCC(O)(c2ccc(Br)cc2)CC1)c1ccc(F)cc1 [BROMPERIDOL],1
12,O=C(O)c1cc(=O)[nH]c(=O)[nH]1 [OROTIC ACID],1
13,COC(=O)C1=C(C)NC(C)=C(C(=O)OCC(C)C)C1c1ccccc1[N+](=O)[O-] (centres unmarked) [NISOLDIPINE],154
14,O=C(C1CCCCC1)N1CC(=O)N2CCc3ccccc3C2C1 (centres unmarked) [PRAZIQUANTEL],0
15,CC(=O)Oc1cc(-c2coc3cc(OC(C)=O)c(OC(C)=O)c(OC(C)=O)c3c2=O)cc(OC(C)=O)c1OC(C)=O [IRIGINOL HEXAACEATATE],114
16,N[C@@H]1CON=C1O [CYCLOSERINE],0
17,O=c1c(O)c(-c2ccc(O)c(O)c2)oc2cc(O)cc(O)c12 [QUERCETIN],22
18,Fc1ccc([C@@H]2CCNC[C@H]2COc2ccc3c(c2)OCO3)cc1 [PAROXETINE HYDROCHLORIDE],1
19,COc1c(O)cc(O)cc1O [IRETOL],1
20,C[C@@H]1CC[C@@]23CCC4(C)[C@@](C=CC5[C@@]6(C)CCC(=O)C(C)(C)C6CC[C@]54C)(OC2=O)C3[C@H]1C (some centres unmarked) [3-OXOURSAN (28-13)OLIDE],1

row,Compound,inhibition at 50 µM [%]
1,C[N+](C)(C)CCCCCC[N+](C)(C)C [HEXAMETHONIUM BROMIDE],2
2,CC1=CC2C(CC1=O)C(C)=CCC2C(C)C (centres unmarked) [MUUROLLADIE-3-ONE],1
3,O=C1c2c(O)cccc2C([C@@H]2O[C@H](CO)[C@@H](O)[C@H](O)[C@H]2O)c2cc(CO)cc(O)c21 (some centres unmarked) [ALOIN],45
4,CCCCCCCCCCCCCCCC(=O)OC/C=C(C)/C=C/C=C(C)/C=C/C1=C(C)CCCC1(C)C [RETINYL PALMITATE],15
5,CC1(C)S[C@@H]2[C@H](NC(=O)[C@H](NC(=O)N3CCNC3=O)c3ccccc3)C(=O)N2[C@H]1C(=O)O [AZLOCILLIN SODIUM],0
6,O=C(O)COCCN1CCN(C(c2ccccc2)c2ccc(Cl)cc2)CC1 (centres unmarked) [CETIRIZINE HYDROCHLORIDE],1
7,Cc1cnc(C(=O)NCCc2ccc(S(=O)(=O)NC(=O)NC3CCCCC3)cc2)cn1 [GLIPIZIDE],1
8,C[C@H]1c2cccc(O)c2C(=O)C2=C(O)[C@]3(O)C(=O)C(C(N)=O)=C(O)[C@@H](N(C)C)[C@@H]3[C@@H](O)[C@@H]21 [DOXYCYCLINE HYDROCHLORIDE],106
9,COc1ccc(C[C@H](N)C(=O)N[C@H]2[C@@H](O)[C@H](n3cnc4c(N(C)C)ncnc43)O[C@@H]2CO)cc1 [PUROMYCIN HYDROCHLORIDE],0
10,CC(C)=CCCC1(C)C=Cc2c(O)c3c(c(CC=C(C)C)c2O1)OC12C(=CCCC1C(C)(C)O[C@@]2(C/C=C(\C)C(=O)O)C(=O)O)C3=O (some centres unmarked) [[…]],75
11,NCCCCN=C(N)N [AGMATINE SULFATE],0
12,CC[C@@]1(O)C(=O)OCc2c1cc1n(c2=O)Cc2cc3c(CN(C)C)c(O)ccc3nc2-1 [TOPOTECAN HYDROCHLORIDE],0
13,O=c1c(-c2cc(O)c(O)c(O)c2)coc2cc(O)c(O)c(O)c12 [IRIGENOL],90
14,O=C1CN(/N=C/c2ccc(-c3ccc([N+](=O)[O-])cc3)o2)C(O)=N1 [DANTROLENE SODIUM],3
15,C=C[C@H]1C[N@@]2CC[C@H]1C[C@@H]2[C@@H](O)c1ccnc2ccccc12 [CINCHONINE],1
16,CC(C(=O)O)c1ccc2c(c1)[nH]c1ccc(Cl)cc12 (centres unmarked) [CARPROFEN],1
17,C[C@@](Cc1ccc(O)c(O)c1)(NN)C(=O)O [CARBIDOPA],0
18,Cc1coc2c1C(=O)C(=O)c1c-2ccc2c1CCCC2(C)C [TANSHINONE IIA],50
19,CC1(C)CC2C1CC[C@]1(CBr)CCC3C(CC(=O)O)C(=O)O[C@@]32C1 (some centres unmarked) [BROMO-3-HYDROXY-4-(SUCCIN-2-YL)-CARYOLANE gamma-LACTONE],1
20,C[N+]1(C)[C@@H]2CC[C@H]1C[C@@H](OC(=O)C(O)c1ccccc1)C2 (some centres unmarked) [HOMATROPINE METHYLBROMIDE],0

row,Compound,inhibition at 50 µM [%]
1,O=C(O)c1ccccc1Nc1cccc(C(F)(F)F)c1 [FLUFENAMIC ACID],62
2,CC[C@H]1OC(=O)[C@H](C)[C@@H](O[C@H]2C[C@@](C)(OC)[C@@H](O)[C@H](C)O2)[C@H](C)[C@@H](O[C@@H]2O[C@H](C)C[C@H](N(C)C)[C@H]2O)[C@](C)(OC)C[C@@H](C)C(=O)[C@H](C)[C@@H](O)[C@]1(C)O [CLARITHROMYCIN],0
3,OCc1cccnc1 [NICOTINYL ALCOHOL TARTRATE],1
4,CC(=O)N[C@@H](Cc1c[nH]c2ccccc12)C(N)=O [ACETYLTRYPTOPHANAMIDE],1
5,CCCNC(=O)NS(=O)(=O)c1ccc(Cl)cc1 [CHLORPROPAMIDE],1
6,CCCc1nc(C)c2c(=O)[nH]c(-c3cc(S(=O)(=O)N4CCN(CC)CC4)ccc3OCC)nn12 [VARDENAFIL HYDROCHLORIDE],1
7,CC1(C)O[C@@H]2C[C@H]3[C@@H]4CCC5=CC(=O)C=C[C@]5(C)[C@H]4[C@@H](O)C[C@]3(C)[C@]2(C(=O)CO)O1 [DESONIDE],0
8,CCOC(=O)OC(C)OC(=O)[C@@H]1N2C(=O)[C@@H](NC(=O)[C@H](N)c3ccccc3)[C@H]2SC1(C)C (some centres unmarked) [BACAMPICILLIN HYDROCHLORIDE],5
9,COc1cc(C2Oc3cc([C@H]4Oc5cc(O)cc(O)c5C(=O)[C@@H]4O)ccc3OC2CO)ccc1O (some centres unmarked) [SILIBININ],27
10,NCCc1ccc(O)c(O)c1 [DOPAMINE HYDROCHLORIDE],2
11,O=C1CCc2cc(OCCCCc3nnnn3C3CCCCC3)ccc2N1 [CILOSTAZOL],2
12,CC[N+](C)(C)c1cccc(O)c1 [EDROPHONIUM CHLORIDE],0
13,Nc1ccc(O)c(C(=O)O)c1 [MESALAMINE],105
14,O=C(O)CCc1nc(-c2ccccc2)c(-c2ccccc2)o1 [OXAPROZIN],13
15,N=C1C=CC(=C(c2ccc(N)cc2)c2ccc(N)cc2)C=C1 [PARA[…]],138
16,Cc1cc(O)c(C)c(O)c1C(=O)O [3-METHYL[…]],1
17,CC1=C(/C=C/C(C)=C/C=C/C(C)=C/C=C/C=C(C)/C=C/C=C(C)/C=C/C(=O)[C@]2(C)C[C@@H](O)CC2(C)C)C(C)(C)C[C@H](O)C1 [CAPSANTHIN],1
18,COc1ccc(-c2c(O)c3c(OC)c4c(cc3oc2=O)OC(C)(C)C=C4)cc1 [ROBUSTIC ACID],111

# Same assay, conditions: 50 µM
row,Compound,Inhibition (%)
1,C=C(C)CCCC(C)CCOC(C)=O (centres unmarked) [RHODINYL ACETATE],0
2,Cl.Cl.NCCNCCNCCN [TRIENTINE HYDROCHLORIDE],13
3,O=c1cc(-c2ccc(O)cc2)oc2ccc(O)cc12 [6.4'-DIHYDROXYFLAVONE],0
4,CC(=O)OCC(OC(C)=O)C(OC(C)=O)C(OC(C)=O)C(OC(C)=O)C(COC(C)=O)OC(C)=O (centres unmarked) [PERSITOL HEPTAACETATE],3
5,CCCCOc1cc(CC2CNC(=O)N2)ccc1OC (centres unmarked) [4-(3-BUTOXY-4-METHOXYBENZYL)IMIDAZOLIDIN-2-ONE],1
6,COC(=O)C[C@H]1C(C)(C)C2(O)OC34CC2C(=O)[C@]1(C)C3CC[C@]1(C)C4=CC(=O)O[C@H]1c1ccoc1 (stereo partly drawn) [8beta-HYDROXYCARAPIN. 3.8-HEMIACETAL],0
7,CCCCCCCCCCCCCCC(C(=O)O)C(O)(CC(=O)OC)C(=O)O (centres unmarked) [CAPERATIC ACID],8
8,CC(=O)Oc1cc(C(C)C)c(OCCN(C)C)cc1C.Cl [MOXISYLYTE HYDROCHORIDE],2
9,AGELASINE,102
10,COC1=CC(=O)C=C(OC)C1=O [2.6-DIMETHOXYQUINONE],50
11,CC(=O)O[C@H]1CCC2(C)C3=C(CCC2C1(C)C)[C@@]1(C)CC[C@@H](C(C)CCC=C(C)C)[C@]1(C)CC3 (some centres unmarked) [EUPHOL ACETATE],1
12,COc1ccc(/C=C/C(=O)c2cc(O)ccc2O)cc1 [2'.5'-DIHYDROXY-4-METHOXYCHALCONE],102
13,OC[C@H]1O[C@@H](O[C@H]2[C@H](O)[C@@H](O)[C@H](O)O[C@@H]2CO)[C@H](O)[C@@H](O)[C@@H]1O [CELLOBIOSE (D[+])],0
14,TANNIC ACID,94
15,CC(=O)O[C@H]1CC[C@]2(C)[C@H]3CC=C4[C@@H]5CC(C)(C)CC[C@]5(C(=O)O)CC[C@@]4(C)[C@]3(C)CC[C@H]2C1(C)C [OLEANOLIC ACID ACETATE],14
16,O=c1cccc2n1C[C@@H]1C[C@H]2CN2CCCC[C@H]12.[O-][Cl+3]([O-])([O-])O [THERMOPSINE PERCHLORATE],0
17,NC(=O)c1cc([N+](=O)[O-])cc([N+](=O)[O-])c1 [NITROMIDE],1
18,BENZALKONIUM CHLORIDE,121

# Same assay, conditions: read-out: IC50 against LsrK
row,Compound,IC50 [µM]
1,COc1ccc(/C=C/C(=O)c2cc(O)ccc2O)cc1 [2'.5'-DIHYDROXY-4-METHOXYCHALCONE],> 50
